Laboratory results published in PubChem BioAssay (NCI).
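These data come from cells grown in 96-well plates and exposed to compound for 48 hours at five concentrations. GI50: concentration for 50% inhibition of growth. TGI marks complete inhibition of growth.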

What was measured:
Experiment in all cases: growth of human tumour cells (NCI), 48 h
[1] = system: HCT-15 colon
[2] = system: SW-620 colon
[3] = system: HOP-62 NSCLC
[4] = system: NCI-H522 lung
[5] = system: RXF 393 renal
[6] = system: MCF7 breast
[7] = system: HL-60(TB) leukemia
[8] = system: 786-0 renal
[9] = system: CAKI-1 renal
[10] = system: HS 578T breast
[11] = system: TK-10 renal
[12] = system: DU-145 prostate
[13] = system: UACC-62 melanoma
[14] = system: EKVX NSCLC
[15] = system: OVCAR-5 ovarian
[16] = system: SN12C renal
[17] = system: MALME-3M melanoma
[18] = system: OVCAR-8 ovarian
[19] = system: K-562 leukemia
[20] = system: SK-MEL-2 melanoma
[21] = system: RPMI-8226 leukemia
[22] = system: BT-549 breast
[23] = system: SF-268 CNS
[24] = system: LOX IMVI melanoma
[25] = system: MOLT-4 leukemia
[26] = system: CCRF-CEM leukemia
[27] = system: OVCAR-4 ovarian
[28] = system: NCI/ADR-RES ovarian
[29] = system: COLO 205 colon
[30] = system: SR leukemia
[31] = system: U251 CNS
[32] = system: HT29 colon
[33] = system: A549 NSCLC
[34] = system: IGROV1 ovarian
[35] = system: SNB-19 CNS
[36] = system: HOP-92 NSCLC
[37] = system: NCI-H226 lung
[38] = system: SF-539 CNS
[39] = system: OVCAR-3 ovarian
[40] = system: SK-MEL-5 melanoma
[41] = system: PC-3 prostate
[42] = system: UO-31 renal
[43] = system: A498 renal
[44] = system: HCT-116 colon
[45] = system: MDA-MB-231 breast
[46] = system: M14 melanoma
[47] = system: NCI-H460 lung
[48] = system: MDA-MB-435
[49] = system: SF-295 CNS
[50] = system: KM12 colon
[51] = system: T-47D breast
[52] = system: SK-MEL-28 melanoma
[53] = system: UACC-257 melanoma
[54] = system: ACHN renal
[55] = system: SK-OV-3 ovarian
[56] = system: NCI-H23 lung
[57] = system: HCC-2998 colon
[58] = system: MDA-N

## COc1ccc(-c2cc(-c3ccc(Cl)cc3)c(C#N)c(=O)n2CCCCC(=O)Nc2ccccc2N)cc1
[1]
  GI50: 3.03 µM
  TGI: 13 µM
[2]
  GI50: 12.6 µM
  TGI: > 100 µM
[3]
  GI50: 12.7 µM
  TGI: > 100 µM
[4]
  GI50: 7.04 µM
  TGI: 57.1 µM
[5]
  GI50: 1.69 µM
  TGI: 6.89 µM
[6]
  GI50: 4.03 µM
  TGI: > 100 µM
[7]
  GI50: 2.08 µM
  TGI: 5.7 µM
[8]
  GI50: 7.46 µM
  TGI: > 100 µM
[9]
  GI50: 2.52 µM
  TGI: 20.2 µM
[10]
  GI50: 8.18 µM
  TGI: 52.4 µM
[11]
  GI50: 27.9 µM
  TGI: > 100 µM
[12]
  GI50: 16.3 µM
  TGI: > 100 µM
[13]
  GI50: 3.29 µM
  TGI: 13 µM
[14]
  GI50: 3.25 µM
  TGI: 91.3 µM
[15]
  GI50: 10.8 µM
  TGI: > 100 µM
[16]
  GI50: 9.32 µM
  TGI: > 100 µM
[17]
  GI50: 4.7 µM
  TGI: 31.1 µM
[18]
  GI50: 4.7 µM
  TGI: > 100 µM
[19]
  GI50: 4.18 µM
  TGI: > 100 µM
[20]
  GI50: 9.05 µM
  TGI: 37.8 µM
[21]
  GI50: 0.789 µM
  TGI: 6.68 µM
[22]
  GI50: 4.71 µM
  TGI: 31.9 µM
[23]
  GI50: 22.1 µM
  TGI: > 100 µM
[24]
  GI50: 1.16 µM
  TGI: 2.92 µM
[25]
  GI50: 4.89 µM
  TGI: > 100 µM
[26]
  GI50: 4.87 µM
  TGI: > 100 µM
[27]
  GI50: 10.5 µM
  TGI: > 100 µM
[28]
  GI50: 4.09 µM
  TGI: > 100 µM
[29]
  GI50: 4.04 µM
  TGI: > 100 µM
[30]
  GI50: 1.09 µM
  TGI: > 100 µM
[31]
  GI50: 7.97 µM
  TGI: > 100 µM
[32]
  GI50: 3.44 µM
  TGI: > 100 µM
[33]
  GI50: 4.94 µM
  TGI: > 100 µM
[34]
  GI50: 4.9 µM
  TGI: > 100 µM
[35]
  GI50: 22.2 µM
  TGI: > 100 µM
[36]
  GI50: 2.59 µM
  TGI: 9.99 µM
[37]
  GI50: 6.26 µM
  TGI: 70.9 µM
[38]
  GI50: 19.4 µM
  TGI: > 100 µM
[39]
  GI50: 13.5 µM
  TGI: 56.6 µM
[40]
  GI50: 2.05 µM
  TGI: 4.48 µM
[41]
  GI50: 6.18 µM
  TGI: 95.9 µM
[42]
  GI50: 4.71 µM
  TGI: > 100 µM
[43]
  GI50: 1.79 µM
  TGI: 48.9 µM
[44]
  GI50: 3.25 µM
  TGI: 20.7 µM
[45]
  GI50: 7.86 µM
  TGI: > 100 µM
[46]
  GI50: 2.58 µM
  TGI: 8.14 µM
[47]
  GI50: 4.26 µM
  TGI: 56.6 µM
[48]
  GI50: 5.8 µM
  TGI: > 100 µM
[49]
  GI50: 2.33 µM
  TGI: 5.96 µM
[50]
  GI50: 5.17 µM
  TGI: > 100 µM
[51]
  GI50: 4.44 µM
  TGI: > 100 µM
[52]
  GI50: 9.13 µM
  TGI: > 100 µM
[53]
  GI50: 4.48 µM
  TGI: > 100 µM
[54]
  GI50: 5.25 µM
  TGI: > 100 µM
[55]
  GI50: 11.3 µM
  TGI: 54.3 µM
[56]
  GI50: 12.7 µM
  TGI: 55.3 µM
[57]
  GI50: 6.2 µM
  TGI: 79.9 µM

## CN(C)c1ccc(/C=c2/c3ccccc3n3c2cc(-c2ccccc2)[n+]3C)cc1
[1]
  TGI: 3.06 µM
[3]
  TGI: 1.12 µM
[7]
  TGI: 0.123 µM
[8]
  TGI: 1.34 µM
[9]
  TGI: 7.65 µM
[11]
  TGI: 4.53 µM
[12]
  TGI: 1.92 µM
[15]
  TGI: 2.19 µM
[18]
  TGI: 0.567 µM
[19]
  TGI: > 100 µM
[20]
  TGI: 0.573 µM
[21]
  TGI: 0.488 µM
[23]
  TGI: 1.08 µM
[27]
  TGI: 2.1 µM
[28]
  TGI: > 100 µM
[30]
  TGI: 0.658 µM
[31]
  TGI: 1.15 µM
[32]
  TGI: 0.908 µM
[33]
  TGI: 2.04 µM
[34]
  TGI: 0.819 µM
[35]
  TGI: 1.28 µM
[36]
  TGI: 1.01 µM
[37]
  TGI: 1.07 µM
[40]
  TGI: 0.38 µM
[41]
  TGI: 1.04 µM
[42]
  TGI: 2.35 µM
[43]
  TGI: 4.38 µM
[44]
  TGI: 1.32 µM
[46]
  TGI: 1.44 µM
[48]
  TGI: 1.12 µM
[58]
  TGI: 1.22 µM
[50]
  TGI: 0.694 µM
[52]
  TGI: 1.87 µM
[53]
  TGI: 1.88 µM
[54]
  TGI: 2.33 µM
[55]
  TGI: 2 µM
[57]
  TGI: > 100 µM
